According to patent publication US20260138976A1 (Hoffmann-La Roche Inc., priority 2022, published 2026):

Tests used:
DGK α kinase = target: T1, DGK α kinase (Homo sapiens, UniProt P23743); assay: DGKalpha kinase ADP Glo assay run by Reaction Biology Corp.; type: biochemical; settings: 2 nM kinase, 50 µM ATP, 500 μM DLG, 10-dose duplicate
T1 construct: purchased Reaction Biology Corp. (contract assay service)
Experimental: (§1) DGK α and ζ kinases use ATP to phosphorylate the substrate 1,2-dilauroyl-sn-glycerol (DLG). ATP is converted to ADP as a result of this enzymatic reaction.
(§2) After the kinase reaction, an ATP-depletion reagent is added to terminate the kinase reaction and deplete any remaining ATP, leaving only ADP. Second, a detection reagent is added to simultaneously convert ADP to ATP and allow the newly synthesized ATP to be converted to light using a coupled luciferase/luciferin reaction.
(§3) DGK α and ζ kinase ADP Glo assays were ran by Reaction Biology Corp., 1 Great Valley Parkway, Suite 2, Malvern, 19355, PA, USA. Information provided by the service provider are the following: DGK α and ζ kinases were used at 2 nM final concentration. Reactions were carried out at 50 µM ATP. 500 μM of the substrate DLG (Dilauroyl-sn-glycerol) was used.

DGK ζ kinase = target: T2, DGK ζ kinase (Homo sapiens, UniProt Q13574); assay: DGKzeta kinase ADP Glo assay run by Reaction Biology Corp.; type: biochemical; settings: 2 nM kinase, 50 µM ATP, 500 μM DLG, 10-dose duplicate
T2 construct: purchased Reaction Biology Corp. (contract assay service)
T2 sequence (Q13574 whole entry): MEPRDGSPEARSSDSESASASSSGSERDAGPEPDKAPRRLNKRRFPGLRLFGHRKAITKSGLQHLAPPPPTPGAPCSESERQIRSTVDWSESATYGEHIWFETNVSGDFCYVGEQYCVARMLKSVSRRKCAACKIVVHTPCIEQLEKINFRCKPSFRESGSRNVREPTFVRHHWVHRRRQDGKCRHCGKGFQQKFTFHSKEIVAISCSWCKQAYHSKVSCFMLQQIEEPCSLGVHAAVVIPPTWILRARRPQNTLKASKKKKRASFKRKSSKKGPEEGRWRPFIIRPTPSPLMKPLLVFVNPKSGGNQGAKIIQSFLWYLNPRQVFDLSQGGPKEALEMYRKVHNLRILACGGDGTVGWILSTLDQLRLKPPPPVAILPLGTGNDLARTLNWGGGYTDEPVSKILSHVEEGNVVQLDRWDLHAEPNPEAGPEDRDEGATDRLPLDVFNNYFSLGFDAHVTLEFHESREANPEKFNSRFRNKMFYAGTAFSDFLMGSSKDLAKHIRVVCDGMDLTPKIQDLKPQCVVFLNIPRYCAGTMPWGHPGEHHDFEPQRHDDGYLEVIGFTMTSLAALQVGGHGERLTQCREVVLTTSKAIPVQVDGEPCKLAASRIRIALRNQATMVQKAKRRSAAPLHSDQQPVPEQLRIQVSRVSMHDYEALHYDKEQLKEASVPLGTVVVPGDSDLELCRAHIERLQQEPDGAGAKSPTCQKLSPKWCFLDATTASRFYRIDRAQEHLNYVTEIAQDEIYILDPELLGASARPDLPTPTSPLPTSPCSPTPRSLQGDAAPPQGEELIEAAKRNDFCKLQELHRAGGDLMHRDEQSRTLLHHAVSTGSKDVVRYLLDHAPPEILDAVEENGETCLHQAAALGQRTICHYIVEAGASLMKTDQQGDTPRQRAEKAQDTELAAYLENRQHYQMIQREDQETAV
Experimental: as §1, §2, §3

T1 sequence (P23743 whole entry): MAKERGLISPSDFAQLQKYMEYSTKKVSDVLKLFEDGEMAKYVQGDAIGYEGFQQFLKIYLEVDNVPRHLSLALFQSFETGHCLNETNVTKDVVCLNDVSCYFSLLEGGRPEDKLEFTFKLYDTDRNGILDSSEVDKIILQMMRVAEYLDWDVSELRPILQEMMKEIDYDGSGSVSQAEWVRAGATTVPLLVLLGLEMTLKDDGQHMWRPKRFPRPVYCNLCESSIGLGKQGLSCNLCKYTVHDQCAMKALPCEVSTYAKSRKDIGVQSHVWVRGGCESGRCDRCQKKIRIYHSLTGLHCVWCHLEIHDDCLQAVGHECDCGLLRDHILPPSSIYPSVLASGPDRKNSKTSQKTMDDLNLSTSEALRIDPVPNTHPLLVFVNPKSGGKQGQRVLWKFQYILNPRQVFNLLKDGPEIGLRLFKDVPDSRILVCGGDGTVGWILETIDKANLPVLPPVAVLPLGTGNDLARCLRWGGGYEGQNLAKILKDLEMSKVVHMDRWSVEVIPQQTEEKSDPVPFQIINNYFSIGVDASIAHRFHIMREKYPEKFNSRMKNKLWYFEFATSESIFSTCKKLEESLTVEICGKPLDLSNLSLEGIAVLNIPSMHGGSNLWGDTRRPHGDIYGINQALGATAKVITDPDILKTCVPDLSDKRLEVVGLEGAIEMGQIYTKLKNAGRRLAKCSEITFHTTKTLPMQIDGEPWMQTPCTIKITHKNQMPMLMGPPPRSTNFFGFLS

Row | SMILES | IC50 (DGK α kinase) [nM] | IC50 (DGK ζ kinase) [nM]
1 | C[C@@](N)(c1nnc(-c2ccc3c(c2)N(Cc2ccc(-c4noc(C(F)(F)F)n4)cc2)C(=O)[C@@H](N)CS3(=O)=O)o1)C(F)(F)F [Example 52, (3R)-3-amino-7-[5-[(1R)-1-amino-2,2,2-trifluoro-1-methyl-ethyl]-1,3,4-oxadiazol-2-yl]-1,1-dioxo-5-[[4-[5-(trifluoromethyl)-1,2,4-oxadiazol-3-yl]phenyl]methyl]-2,3-dihydro-1λ^6,5-benzothiazepin-4-one] | 63.6 | 101
2 | CC(C)(C#N)c1nnc(-c2ccc3c(c2)N(Cc2ccc(-c4ccc(C(F)(F)F)cn4)cc2)C(=O)[C@@H](N)CS3(=O)=O)o1 [Example 47] | 238 | 71.3
3 | Cc1noc(-c2ccc(CN3C(=O)[C@@H](N)CS(=O)(=O)c4ccc(-c5nnc(C(C)(C)C)o5)cc43)cc2)n1 [Example 20, (3R)-3-amino-7-(5-tert-butyl-1,3,4-oxadiazol-2-yl)-5-[[4-(3-methyl-1,2,4-oxadiazol-5-yl)phenyl]methyl]-1,1-dioxo-2,3-dihydro-1λ^6,5-benzothiazepin-4-one] | 1410 | 439
4 | N[C@H]1CS(=O)(=O)c2ccc(-c3nnc(N4CCOC(F)(F)C4)o3)cc2N(Cc2ccc(-c3noc(C(F)(F)F)n3)cc2)C1=O [Example 78, (3R)-3-amino-7-[5-(2,2-difluoromorpholin-4-yl)-1,3,4-oxadiazol-2-yl]-1,1-dioxo-5-[[4-[5-(trifluoromethyl)-1,2,4-oxadiazol-3-yl]phenyl]methyl]-2,3-dihydro-1λ^6,5-benzothiazepin-4-one] | 105 | 25.4
5 | CC(C)(C#N)c1nnc(-c2ccc3c(c2)N(Cc2ccc(-c4ccc(OC(F)(F)F)cn4)cc2)C(=O)[C@@H](N)CS3(=O)=O)o1 [Example 124] | 23.3 | 56.7
6 | COc1ccc(-c2ccc(CN3C(=O)[C@@H](N)CS(=O)(=O)c4ccc(-c5nnc(N(C)CC(F)(F)F)o5)cc43)cc2)cc1 [Example 81, (3R)-3-amino-5-[[4-(4-methoxyphenyl)phenyl]methyl]-7-[5-[methyl(2,2,2-trifluoroethyl)amino]-1,3,4-oxadiazol-2-yl]-1,1-dioxo-2,3-dihydro-1λ^6,5-benzothiazepin-4-one] | 226 | 53.5
7 | C[C@](N)(c1nnc(-c2ccc3c(c2)N(Cc2ccc(-c4noc(C(F)(F)F)n4)cc2)C(=O)[C@@H](N)CS3(=O)=O)o1)C(F)(F)F [Example 53, (3R)-3-amino-7-[5-[(1S)-1-amino-2,2,2-trifluoro-1-methyl-ethyl]-1,3,4-oxadiazol-2-yl]-1,1-dioxo-5-[[4-[5-(trifluoromethyl)-1,2,4-oxadiazol-3-yl]phenyl]methyl]-2,3-dihydro-1λ^6,5-benzothiazepin-4-one] | 160 | 92.8
